The source made the active and inactive calls.
What was measured:
Paracentrotus lividus [1] = experiment: Antimitotic activity against Paracentrotus lividus embryo assessed as concentration required to cause 100% cleavage arrest after 2.5 to 6 hrs; format: functional
NCI-H226 = experiment: Cytotoxicity against human NCI-H226 cells after 48 hrs by trypan blue dye exclusion assay; format: functional; conditions: NCI-H226, 48 h
KM12 = experiment: Cytotoxicity against human KM12 cells after 48 hrs by trypan blue dye exclusion assay; format: functional; conditions: KM12, 48 h
RXF 393 = experiment: Cytotoxicity against human RXF393 cells after 48 hrs by trypan blue dye exclusion assay; format: functional; conditions: RXF 393, 48 h
LOX IMVI = experiment: Cytotoxicity against human LOXIMVI cells after 48 hrs by trypan blue dye exclusion assay; format: functional
SF-539 = experiment: Cytotoxicity against human SF539 cells after 48 hrs by trypan blue dye exclusion assay; format: functional; conditions: SF-539, 48 h
NCI/ADR-RES = experiment: Cytotoxicity against human NCI/ADR-RES cells after 48 hrs by trypan blue dye exclusion assay; format: functional
OVCAR-8 = experiment: Cytotoxicity against human OVCAR8 cells after 48 hrs by trypan blue dye exclusion assay; format: functional; conditions: OVCAR-8, 48 h
DU-145 = experiment: Cytotoxicity against human DU145 cells after 48 hrs by trypan blue dye exclusion assay; format: functional; conditions: DU-145, 48 h
CCRF-CEM = experiment: Cytotoxicity against human CCRF-CEM cells after 48 hrs by trypan blue dye exclusion assay; format: functional
MDA-MB-435 = experiment: Cytotoxicity against human MDA-MB-435 cells after 48 hrs by trypan blue dye exclusion assay; format: functional; conditions: MDA-MB-435, 48 h
COLO 205 = experiment: Cytotoxicity against human COLO205 cells after 48 hrs by trypan blue dye exclusion assay; format: functional; conditions: COLO 205, 48 h
Paracentrotus lividus [2] = experiment: Antimitotic activity against Paracentrotus lividus embryo assessed as cleavage arrest at 2 fold less effective threshold concentration after 2.5 to 6 hrs; format: functional, organism-based
M14 = experiment: Cytotoxicity against human M14 cells after 48 hrs by trypan blue dye exclusion assay; format: functional; conditions: M14, 48 h
Paracentrotus lividus [3] = experiment: Microtubule destabilizing activity in Paracentrotus lividus embryo assessed as concentration required to cause 100% embryo spinning after 15 mins to 20 hrs; format: functional
MCF7 = experiment: Cytotoxicity against human MCF7 cells after 48 hrs by trypan blue dye exclusion assay; format: functional; conditions: MCF7, 48 h
RPMI-8226 = experiment: Cytotoxicity against human RPMI8226 cells after 48 hrs by trypan blue dye exclusion assay; format: functional; conditions: RPMI-8226, 48 h
OVCAR-3 = experiment: Cytotoxicity against human OVCAR3 cells after 48 hrs by trypan blue dye exclusion assay; format: functional; conditions: OVCAR-3, 48 h
UO-31 = experiment: Cytotoxicity against human UO31 cells after 48 hrs by trypan blue dye exclusion assay; format: functional; conditions: UO-31, 48 h
SN12C = experiment: Cytotoxicity against human SN12C cells after 48 hrs by trypan blue dye exclusion assay; format: functional
OVCAR-4 = experiment: Cytotoxicity against human OVCAR4 cells after 48 hrs by trypan blue dye exclusion assay; format: functional; conditions: OVCAR-4, 48 h
Paracentrotus lividus [4] = experiment: Microtubule destabilizing activity in Paracentrotus lividus embryo assessed as embryo spinning at 2 fold less effective threshold concentration after 15 mins to 20 hrs; format: functional, organism-based
IGROV-1 = experiment: Cytotoxicity against human IGROV1 cells after 48 hrs by trypan blue dye exclusion assay; format: functional; conditions: IGROV-1, 48 h
MDA-MB-468 = experiment: Cytotoxicity against human MDA-MB-468 cells after 48 hrs by trypan blue dye exclusion assay; format: functional; conditions: MDA-MB-468, 48 h
MDA-MB-231 = experiment: Cytotoxicity against human MDA-MB-231 cells after 48 hrs by trypan blue dye exclusion assay; format: functional; conditions: MDA-MB-231, 48 h
NCI-H522 = experiment: Cytotoxicity against human NCI-H522 cells after 48 hrs by trypan blue dye exclusion assay; format: functional; conditions: NCI-H522, 48 h
OVCAR-5 = experiment: Cytotoxicity against human OVCAR5 cells after 48 hrs by trypan blue dye exclusion assay; format: functional; conditions: OVCAR-5, 48 h
SW-620 = experiment: Cytotoxicity against human SW620 cells after 48 hrs by trypan blue dye exclusion assay; format: functional; conditions: SW-620, 48 h
T47D = experiment: Cytotoxicity against human T47D cells after 48 hrs by trypan blue dye exclusion assay; format: functional
[5] = Cytotoxicity against human Hs 578T cells after 48 hrs by trypan blue dye exclusion assay; format: functional
HCC 2998 = experiment: Cytotoxicity against human HCC2998 cells after 48 hrs by trypan blue dye exclusion assay; format: functional; conditions: HCC 2998, 48 h
Paracentrotus lividus [6] = experiment: Antimitotic activity against Paracentrotus lividus embryo assessed as concentration required to cause 100% cleavage alteration after 2.5 to 6 hrs; format: functional
BT-549 = experiment: Cytotoxicity against human BT549 cells after 48 hrs by trypan blue dye exclusion assay; format: functional; conditions: BT-549, 48 h
UACC-62 = experiment: Cytotoxicity against human UACC62 cells after 48 hrs by trypan blue dye exclusion assay; format: functional; conditions: UACC-62, 48 h
SNB-75 = experiment: Cytotoxicity against human SNB75 cells after 48 hrs by trypan blue dye exclusion assay; format: functional; conditions: SNB-75, 48 h
HOP-92 = experiment: Cytotoxicity against human HOP92 cells after 48 hrs by trypan blue dye exclusion assay; format: functional; conditions: HOP-92, 48 h
SNB-19 = experiment: Cytotoxicity against human SNB19 cells after 48 hrs by trypan blue dye exclusion assay; format: functional; conditions: SNB-19, 48 h
SF-268 = experiment: Cytotoxicity against human SF268 cells after 48 hrs by trypan blue dye exclusion assay; format: functional; conditions: SF-268, 48 h
Paracentrotus lividus [7] = experiment: Antimitotic activity against Paracentrotus lividus embryo assessed as cleavage alteration at 2 fold less effective threshold concentration after 2.5 to 6 hrs; format: functional, organism-based
SK-MEL-28 = experiment: Cytotoxicity against human SK-MEL-28 cells after 48 hrs by trypan blue dye exclusion assay; format: functional; conditions: SK-MEL-28, 48 h
SK-OV-3 = experiment: Cytotoxicity against human SKOV3 cells after 48 hrs by trypan blue dye exclusion assay; format: functional; conditions: SK-OV-3, 48 h
A498 = experiment: Cytotoxicity against human A498 cells after 48 hrs by trypan blue dye exclusion assay; format: functional; conditions: A498, 48 h
HCT-116 = experiment: Cytotoxicity against human HCT116 cells after 48 hrs by trypan blue dye exclusion assay; format: functional; conditions: HCT-116, 48 h
MOLT-4 = experiment: Cytotoxicity against human MOLT4 cells after 48 hrs by trypan blue dye exclusion assay; format: functional; conditions: MOLT-4, 48 h
HL-60(TB) = experiment: Cytotoxicity against human HL-60(TB) cells after 48 hrs by trypan blue dye exclusion assay; format: functional; conditions: HL-60, 48 h
SK-MEL-2 = experiment: Cytotoxicity against human SK-MEL-2 cells after 48 hrs by trypan blue dye exclusion assay; format: functional; conditions: SK-MEL-2, 48 h
NCI-H460 = experiment: Cytotoxicity against human NCI-H460 cells after 48 hrs by trypan blue dye exclusion assay; format: functional; conditions: NCI-H460, 48 h
PC-3 = experiment: Cytotoxicity against human PC3 cells after 48 hrs by trypan blue dye exclusion assay; format: functional; conditions: PC-3, 48 h
Malme-3M = experiment: Cytotoxicity against human MALME-3M cells after 48 hrs by trypan blue dye exclusion assay; format: functional
HT-29 = experiment: Cytotoxicity against human HT-29 cells after 48 hrs by trypan blue dye exclusion assay; format: functional; conditions: HT-29, 48 h
U-251 = experiment: Cytotoxicity against human U251 cells after 48 hrs by trypan blue dye exclusion assay; format: functional; conditions: U-251, 48 h
EKVX = experiment: Cytotoxicity against human EKVX cells after 48 hrs by trypan blue dye exclusion assay; format: functional
A549 = experiment: Cytotoxicity against human A549 cells after 48 hrs by trypan blue dye exclusion assay; format: functional; conditions: A549, 48 h
NCI-H23 = experiment: Cytotoxicity against human NCI-H23 cells after 48 hrs by trypan blue dye exclusion assay; format: functional; conditions: NCI-H23, 48 h
SF-295 = experiment: Cytotoxicity against human SF295 cells after 48 hrs by trypan blue dye exclusion assay; format: functional; conditions: SF-295, 48 h
786-0 = experiment: Cytotoxicity against human 786-0 cells after 48 hrs by trypan blue dye exclusion assay; format: functional; conditions: 786-0, 48 h
ACHN = experiment: Cytotoxicity against human ACHN cells after 48 hrs by trypan blue dye exclusion assay; format: functional
HCT-15 = experiment: Cytotoxicity against human HCT15 cells after 48 hrs by trypan blue dye exclusion assay; format: functional; conditions: HCT-15, 48 h
TK-10 = experiment: Cytotoxicity against human TK10 cells after 48 hrs by trypan blue dye exclusion assay; format: functional; conditions: TK-10, 48 h
SR = experiment: Cytotoxicity against human SR cells after 48 hrs by trypan blue dye exclusion assay; format: functional

## COc1ccc2c(c1)OC1=C(C(=O)OC1)C2c1cc(OC)c(OC)c(OC)c1 (stereo not given)
Paracentrotus lividus [1]
  EC: 50 nM
NCI-H226
  GI50: 47500 nM
KM12
  GI50: 464 nM
RXF 393
  GI50: 231 nM
LOX IMVI
  GI50: 505 nM
SF-539
  GI50: 376 nM
NCI/ADR-RES
  GI50: 334 nM
OVCAR-8
  GI50: 788 nM
DU-145
  GI50: 648 nM
CCRF-CEM
  GI50: 315 nM
MDA-MB-435
  GI50: 120 nM
COLO 205
  GI50: 309 nM
Paracentrotus lividus [2]
  Activity: inactive
M14
  GI50: 505 nM
Paracentrotus lividus [3]
  EC: 200 nM
MCF7
  GI50: 330 nM
RPMI-8226
  GI50: 816 nM
OVCAR-3
  GI50: 332 nM
UO-31
  GI50: 936 nM
SN12C
  GI50: 993 nM
OVCAR-4
  GI50: 2650 nM
Paracentrotus lividus [4]
  Activity: inactive
IGROV-1
  GI50: 1130 nM
MDA-MB-468
  GI50: 232 nM
MDA-MB-231
  GI50: 1740 nM
NCI-H522
  GI50: 378 nM
OVCAR-5
  GI50: 4680 nM
SW-620
  GI50: 352 nM
T47D
  GI50: 489 nM
[5]
  GI50: 377 nM
HCC 2998
  GI50: 1350 nM
Paracentrotus lividus [6]
  EC: 5 nM
BT-549
  GI50: 947 nM
UACC-62
  GI50: 568 nM
SNB-75
  GI50: 172 nM
HOP-92
  GI50: 496 nM
SNB-19
  GI50: 553 nM
SF-268
  GI50: 731 nM
Paracentrotus lividus [7]
  Activity: inactive
SK-MEL-28
  GI50: 667 nM
SK-OV-3
  GI50: 368 nM
A498
  GI50: 295 nM
HCT-116
  GI50: 496 nM
MOLT-4
  GI50: 515 nM
HL-60(TB)
  GI50: 249 nM
SK-MEL-2
  GI50: 439 nM
NCI-H460
  GI50: 1270 nM
PC-3
  GI50: 482 nM
Malme-3M
  GI50: 468 nM
HT-29
  GI50: 323 nM
U-251
  GI50: 731 nM
EKVX
  GI50: 1420 nM
A549
  GI50: 707 nM
NCI-H23
  GI50: 441 nM
SF-295
  GI50: 288 nM
786-0
  GI50: 562 nM
ACHN
  GI50: 1630 nM
HCT-15
  GI50: 508 nM
TK-10
  GI50: > 100000 nM
SR
  GI50: 242 nM
